Measurements published in the NIST ThermoML archive (doi:10.1016/j.fluid.2012.08.030).

Tests used:
[1] = Liquid; for mass density: 101 kPa, Vibrating tube method; for vapor or sublimation pressure: Ebulliometric method (Recirculating still)
[2] = xn = mol fraction of the nth substance listed; conditions: 101 kPa, Liquid, Vibrating tube method

COCCO [2-methoxyethan-1-ol]
[1]
Conditions | mass density [kg/m3] | vapor or sublimation pressure [kPa]
303.15 K | 955.74 | –
308.15 K | 951.14 | –
313.15 K | 946.25 | –
318.15 K | 941.59 | –
364.15 K | – | 28.1
368.84 K | – | 34.2
373.48 K | – | 41.3
377.22 K | – | 47.9
380.17 K | – | 53.7
383.3 K | – | 60.5
386.66 K | – | 68.6
389.59 K | – | 76.4
391.28 K | – | 81.2
393.75 K | – | 88.7
395.78 K | – | 95.3

COCCO [2-methoxyethan-1-ol] + CN1CCCC1=O
mass density [kg/m3], [2]
Conditions | 303.15 K | 308.15 K | 313.15 K | 318.15 K
x2 = 0 | 955.74 | 951.14 | 946.25 | 941.59
x2 = 0.084 | 965.64 | 961.46 | 957.05 | 952.92
x2 = 0.171 | 975.06 | 971.25 | 967.28 | 963.59
x2 = 0.261 | 983.98 | 980.47 | 976.83 | 973.49
x2 = 0.354 | 992.29 | 989 | 985.62 | 982.52
x2 = 0.451 | 999.91 | 996.77 | 993.52 | 990.55
x2 = 0.552 | 1006.73 | 1003.64 | 1000.44 | 997.46
x2 = 0.657 | 1012.64 | 1009.49 | 1006.19 | 1003.04
x2 = 0.767 | 1017.5 | 1014.17 | 1010.64 | 1007.15
x2 = 0.881 | 1021.17 | 1017.52 | 1013.58 | 1009.56
x2 = 0.916 | 1022 | 1018.23 | 1014.14 | 1009.93
x2 = 0.94 | 1022.5 | 1018.64 | 1014.43 | 1010.07
x2 = 0.97 | 1023.01 | 1019.04 | 1014.68 | 1010.13
x2 = 0.988 | 1023.3 | 1019.24 | 1014.78 | 1010.1

CN1CCCC1=O [N-methylpyrrolidone]
[1]
Conditions | mass density [kg/m3] | vapor or sublimation pressure [kPa]
303.15 K | 1023.45 | –
308.15 K | 1019.34 | –
313.15 K | 1014.82 | –
318.15 K | 1010.06 | –
430.09 K | – | 28.1
436.5 K | – | 34.2
442.88 K | – | 41.3
448.05 K | – | 47.9
452.13 K | – | 53.7
456.48 K | – | 60.5
461.17 K | – | 68.6
465.29 K | – | 76.4
467.66 K | – | 81.2
471.15 K | – | 88.7
474.01 K | – | 95.3

CN1CCCC1=O [N-methylpyrrolidone] + CCCCOCCO
[2], x1 = 1
Conditions | mass density [kg/m3]
303.15 K | 1023.45
308.15 K | 1019.34
313.15 K | 1014.82
318.15 K | 1010.06

CN1CCCC1=O [N-methylpyrrolidone] + CCOCCO
[2], x1 = 1
Conditions | mass density [kg/m3]
303.15 K | 1023.45
308.15 K | 1019.34
313.15 K | 1014.82
318.15 K | 1010.06

CN1CCCC1=O [N-methylpyrrolidone] + COCCO
[2], x1 = 1
Conditions | mass density [kg/m3]
303.15 K | 1023.45
308.15 K | 1019.34
313.15 K | 1014.82
318.15 K | 1010.06
